# Experiments:
# HeLa = assay: Antiproliferative activity against human HeLa cells assessed as cell viability after 48 hrs by MTT assay; assay type: functional, cell-based
# Rattus norvegicus = organism: Rattus norvegicus; assay: Inhibition of rat liver TrxR assessed as increase in absorbance at 10 uM by DTNB assay
# MCF7 = assay: Antiproliferative activity against human MCF7 cells assessed as cell viability after 48 hrs by MTT assay; assay type: functional, cell-based; details: MCF7, 48 h
# [1] = Aqueous solubility of the compound in phosphate buffer at pH 7.4; assay type: physicochemical
# [2] = Antiproliferative activity against human Bel7402 cells assessed as cell viability after 48 hrs by MTT assay; assay type: functional, cell-based; details: Bel-7402, 48 h
# A549 = assay: Antiproliferative activity against human A549 cells assessed as cell viability after 48 hrs by MTT assay; assay type: functional, cell-based; details: A549, 48 h
# [3] = Inhibition of rat liver TrxR assessed as increase in absorbance by DTNB assay
Compound,IC50 (HeLa),inhibition (Rattus norvegicus),IC50 (MCF7),solubility [1],IC50 [2],IC50 (A549),IC50 [3]
COc1cc(/C=C/c2ccc(-n3[se]c4cc(Cl)ccc4c3=O)cc2)cc(OC)c1,0.23 µM,36.4%,0.47 µM,< 10 µM,0.79 µM,0.52 µM,
COc1ccc(/C=C/c2ccc(-n3[se]c4ccc(Cl)cc4c3=O)cc2)cc1OC,12 µM,38.4%,16.9 µM,< 20 µM,6.13 µM,6.95 µM,
COc1cc(/C=C/c2ccc(-n3[se]c4ccccc4c3=O)cc2)cc(OC)c1OC,5.67 µM,,3.97 µM,,1.11 µM,3.11 µM,5.78 µM
O=c1c2ccccc2[se]n1-c1ccc(/C=C/c2ccccc2)cc1,35.7 µM,22.4%,24.8 µM,,12.4 µM,23.8 µM,
COc1cc(/C=C/c2ccc(-n3[se]c4cc(OC)c(OC)cc4c3=O)cc2)cc(OC)c1,31.6 µM,,88.9 µM,,25.4 µM,52.6 µM,7.53 µM
COc1cc(/C=C/c2ccc(-n3[se]c4ccc(Cl)cc4c3=O)cc2)cc(OC)c1,,31.2%,,< 50 µM,,,
COc1cc(/C=C/c2ccc(-n3[se]c4ccccc4c3=O)cc2)cc(OC)c1,3.8 µM,,7.78 µM,> 100 µM,3.49 µM,3.73 µM,8.27 µM

# From ChEMBL document CHEMBL3421553, “Design, synthesis, and biological evaluation of benzoselenazole-stilbene hybrids as multi-target-directed anti-cancer agents” (Eur J Med Chem, 2015)
